Assay results reported in ChEMBL document CHEMBL3739387, “Discovery and SAR of Novel and Selective Inhibitors of Urokinase Plasminogen Activator (uPA) with an Imidazo[1,2-a]pyridine Scaffold” (J Med Chem, 2015).

Molecular target: Urokinase-type plasminogen activator (Homo sapiens, UniProt P00749)
Experiment: Inhibition of human uPA using pyro-Glu-Gly-Arg-pNA as substrate assessed as para-nitroaniline release from substrate measured for 5 mins by spectrophotometric assay

Row | Structure (SMILES) | IC50 [µM]
1 | COC(=O)c1ccn2c(NCc3ccc(NC(=N)N)cc3)c(-c3cccnc3)nc2c1 | 15
2 | N=C(N)Nc1ccc(CCNc2c(-c3cccc(Cl)c3)nc3cnccn23)cc1 | 53.8
3 | CCCCNC(=O)c1ccc2nc(-c3cccnc3)c(NCc3ccc(NC(=N)N)cc3)n2c1 | 60.8
4 | CCc1ccc(-c2nc3ccccn3c2NCc2ccc(NC(=N)N)cc2)cc1 | 63.9
5 | N=C(N)Nc1ccc(CNc2c(CN)nc3ccccn23)cc1 | 9.3
6 | NCCOc1ccc(Nc2cnc3ccccn23)cc1 | > 1000
7 | N=C(N)Nc1ccc(CNc2c(Cc3cccc(Cl)c3)nc3ccccn23)cc1 | 18
8 | N=C(N)Nc1ccc(CNc2c(-c3cccnc3)nc3ccc(C(F)(F)F)cn23)cc1 | 200
9 | N=C(N)Nc1ccc(CNc2c(-c3cc(Cl)cc(Cl)c3)nc3ccccn23)cc1 | 99.2
10 | N=C(N)Nc1ccc(CNc2c(-c3cccnc3)nc3cc(C(=O)O)ccn23)cc1 | 26.9
11 | N=C(N)NCCCCNc1cnc2ccccn12 | 200
12 | Cc1cccn2c(NCc3ccc(NC(=N)N)cc3)c(-c3cccnc3)nc12 | 27.4
13 | Cc1ccc2nc(-c3cccnc3)c(NCc3ccc(NC(=N)N)cc3)n2c1 | 23.9
14 | N=C(N)Nc1ccc(CCNc2cnc3ccccn23)cc1 | 19.4
15 | Clc1ccc(OCCNc2cnc3ccccn23)c(Cl)c1 | 250
16 | N=C(N)Nc1ccc(CNc2c(C3CCNCC3)nc3ccccn23)cc1 | 250
17 | NCCOc1c(Cl)cc(Nc2cnc3ccccn23)cc1Cl | 500
18 | CCc1nc2ccccn2c1NCc1ccc(NC(=N)N)cc1 | 48.5
19 | NC[C@H]1CC[C@H](Nc2cnc3ccccn23)CC1 | 500
20 | N=C(N)Nc1ccc(CNc2c(-c3cccc(F)c3)nc3ccccn23)cc1 | 100
21 | N=C(N)Nc1ccc(CNc2c(-c3cccnc3)nc3ccc(F)cn23)cc1 | 57.6
22 | CCc1nc2ccccn2c1NCCc1ccc(NC(=N)N)cc1 | 150
23 | N=C(N)Nc1ccc(CNc2c(-c3ccccc3)nc3ccccn23)cc1 | 30.1
24 | N=C(N)Nc1ccc(CNc2c(Cc3ccccc3)nc3ccccn23)cc1 | 30.2
25 | NCc1ccc(Nc2cnc3ccccn23)cc1 | > 500
26 | N=C(N)Nc1ccc(CNc2c(-c3ccc(F)cc3)nc3ccccn23)cc1 | 125
27 | CCCCNC(=O)c1ccn2c(NCc3ccc(NC(=N)N)cc3)c(-c3cccnc3)nc2c1 | 6.89
28 | N=C(N)Nc1ccc(CNc2c(-c3cccnc3)nc3ccc(C(N)=O)cn23)cc1 | 27.3
